This note sets out measurements from US12581252B2, “Substituted pyrrolo[3,4-b]pyridines as PI3K-α inhibitors” (Relay Therapeutics, Inc., priority 2020, dated 2026).

What is called IC50 is the concentration at which inhibition is half-maximal. A low value points to greater potency.

SMILES strings stand for the structures.

Chain of H1047R PIK3CA enzyme (P42336 whole entry H1047R): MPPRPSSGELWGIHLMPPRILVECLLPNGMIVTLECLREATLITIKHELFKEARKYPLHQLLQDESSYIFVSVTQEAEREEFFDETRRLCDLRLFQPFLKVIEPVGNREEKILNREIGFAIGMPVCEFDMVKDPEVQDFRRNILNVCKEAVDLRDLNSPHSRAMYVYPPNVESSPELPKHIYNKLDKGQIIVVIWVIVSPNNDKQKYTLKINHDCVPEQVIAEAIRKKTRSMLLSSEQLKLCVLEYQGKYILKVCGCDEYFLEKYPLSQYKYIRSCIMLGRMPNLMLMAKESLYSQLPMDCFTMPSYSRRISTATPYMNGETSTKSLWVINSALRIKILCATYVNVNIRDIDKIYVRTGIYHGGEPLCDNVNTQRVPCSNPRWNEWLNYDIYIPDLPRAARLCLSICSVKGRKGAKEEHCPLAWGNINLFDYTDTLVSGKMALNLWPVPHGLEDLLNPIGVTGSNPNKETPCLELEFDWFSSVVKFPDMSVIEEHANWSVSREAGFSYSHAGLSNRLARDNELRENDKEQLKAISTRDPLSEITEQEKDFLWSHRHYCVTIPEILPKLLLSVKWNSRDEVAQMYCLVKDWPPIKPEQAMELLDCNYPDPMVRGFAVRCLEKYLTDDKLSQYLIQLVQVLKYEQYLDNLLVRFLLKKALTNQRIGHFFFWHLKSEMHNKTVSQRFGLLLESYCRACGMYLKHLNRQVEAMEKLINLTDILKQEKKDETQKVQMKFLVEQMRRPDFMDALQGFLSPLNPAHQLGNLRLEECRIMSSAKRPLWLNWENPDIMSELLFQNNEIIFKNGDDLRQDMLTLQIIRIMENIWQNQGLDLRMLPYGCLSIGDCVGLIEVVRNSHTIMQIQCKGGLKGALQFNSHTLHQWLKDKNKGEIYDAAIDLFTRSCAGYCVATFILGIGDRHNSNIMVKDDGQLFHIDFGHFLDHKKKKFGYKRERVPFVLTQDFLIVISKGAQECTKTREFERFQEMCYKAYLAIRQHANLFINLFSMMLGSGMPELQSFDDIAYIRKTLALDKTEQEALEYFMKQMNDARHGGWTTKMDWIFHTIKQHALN
Chain of H1047R PIK3CA enzyme (P27986 whole entry partner): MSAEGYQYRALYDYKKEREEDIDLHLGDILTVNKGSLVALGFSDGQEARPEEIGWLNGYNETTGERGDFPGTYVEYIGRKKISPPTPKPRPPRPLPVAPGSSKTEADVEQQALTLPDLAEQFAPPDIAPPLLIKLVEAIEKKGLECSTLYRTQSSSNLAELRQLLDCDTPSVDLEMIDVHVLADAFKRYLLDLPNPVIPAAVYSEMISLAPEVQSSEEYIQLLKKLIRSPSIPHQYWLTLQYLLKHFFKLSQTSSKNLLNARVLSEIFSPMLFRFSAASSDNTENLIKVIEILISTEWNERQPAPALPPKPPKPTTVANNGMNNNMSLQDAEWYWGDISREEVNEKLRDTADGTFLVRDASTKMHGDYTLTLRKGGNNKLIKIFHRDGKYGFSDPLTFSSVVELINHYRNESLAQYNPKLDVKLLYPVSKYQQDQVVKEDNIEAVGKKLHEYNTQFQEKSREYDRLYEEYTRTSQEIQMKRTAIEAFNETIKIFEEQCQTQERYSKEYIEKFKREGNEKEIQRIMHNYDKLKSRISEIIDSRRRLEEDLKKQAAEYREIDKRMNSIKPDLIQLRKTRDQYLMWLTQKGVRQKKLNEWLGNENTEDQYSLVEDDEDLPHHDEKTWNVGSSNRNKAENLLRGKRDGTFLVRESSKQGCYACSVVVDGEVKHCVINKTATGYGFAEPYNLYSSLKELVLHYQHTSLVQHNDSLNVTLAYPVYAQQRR

This test has as its target H1047R PIK3CA enzyme (Homo sapiens, UniProt P42336, H1047R). The experiment in a line: ADP-Glo Biochemical PIK3CA Kinase Assay. The method, then: Compounds to be assayed were plated in 16 doses of 1:2 serial dilutions (20 nL volume each well) on a 1536-well plate, and the plate warmed to room temperature. […] To the well was added 1 μL of 200 μM ATP and 20 μM of diC8-PIP2 in Substrate Assay Buffer (50 mM HEPES pH7.4, 50 mM NaCl, 5 mM DTT and 0.03% CHAPS) to start the reaction, and the plate was shaken for 10 seconds, then spun briefly at 1500 rpm, and then incubated for 60 minutes at room temperature. The reaction was stopped by adding 2 μL of ADP-Glo reagent (Promega), and spinning briefly at 1500 rpm, and then incubating for 40 minutes. ADP-Glo Detection reagent (Promega) was added and the plate spun briefly at 1500 rpm, then incubated for 30 minutes.
Compound `O=C(Nc1cc(CC(O)CCO)cc2c1C(c1cc(F)ccc1Cl)NC2=O)c1cc(F)cc(C(F)(F)F)c1` (centres unmarked) [Compound I-1463] returned an IC50 of at most 100 nM.
As for `O=C1N[C@H](c2cc(F)ccc2Cl)c2c(NC(=O)N3C[C@](O)(C(F)F)c4cc(F)ccc43)cc(F)cc21` (single isomer, unassigned) [Compound I-2634], the figure is 1000 to 10000 nM; as for `O=C(Nc1cc(C2CC(F)(F)C2)cc2c1C(c1cc(F)ccc1Cl)NC2=O)c1cc(F)cc(C(F)(F)F)c1` (centres unmarked) [Compound I-779], at most 100 nM.
As for `O=C1N[C@@H](c2cc(F)ccc2Cl)c2c(NC(=O)N3C[C@@](O)(C(F)(F)F)c4cc(F)ccc43)cc(C3COC3)cc21` (single isomer, unassigned) [Compound I-2656], the figure is 500 to 1000 nM.
As for `N#CC1(CNc2cc(NC(=O)c3cc(F)cc(C(F)(F)F)c3)c3c(c2)C(=O)N[C@@H]3c2cc(F)ccc2Cl)CC1` [Compound I-869], the figure is 100 to 500 nM; as for `O=C1N[C@H](c2cc(F)ccc2Cl)c2c(NC(=O)N3CCC[C@@](O)(C(F)(F)F)C3)cccc21` (single isomer, unassigned) [Compound I-2113], 10000 to 100000 nM.
`O=C(Nc1cc(-c2ccn3ncnc3c2)cc2c1[C@@H](c1cc(F)ccc1Cl)NC2=O)c1cc(F)cc(C(F)(F)F)c1` (stereo in doubt) [Compound I-1596] gave an IC50 of 1000 to 10000 nM.
Take `CC(C)(O)c1cc(NC(=O)c2cc(Cl)n3ccccc23)c2c(c1)C(=O)NC2c1cc(F)ccc1C(F)F` (centres unmarked) [Compound I-267]: the IC50 was at most 100 nM.
`O=C(Nc1cc(-c2cnc3ncc(Cl)n3c2)cc2c1[C@H](c1cc(F)ccc1Cl)NC2=O)c1cc(F)cc(C(F)(F)F)c1` [Compound I-1985] had an IC50 of at most 100 nM.
For `O=C(Nc1cc(-c2cn3cccnc3n2)cc2c1C(c1cc(F)ccc1Cl)NC2=O)c1cc(F)cc(C(F)(F)F)c1` (centres unmarked) [Compound I-1355] the value was at most 100 nM.
As for `Cc1ccccc1C1NC(=O)c2cccc(NC(=O)c3cnc4ccc(Cl)cn34)c21` (centres unmarked) [Compound I-47], the figure is 10000 to 100000 nM; as for `Cc1cc2cccc(C(=O)Nc3cc(Br)cc4c3C(c3cc(F)ccc3Cl)NC4=O)c2o1` (centres unmarked) [Compound I-635], 1000 to 10000 nM; as for `O=C1NC[C@H](c2cc(NC(=O)c3cc(F)cc(C(F)(F)F)c3)c3c(c2)C(=O)N[C@H]3c2cc(F)ccc2Cl)O1` (single isomer, unassigned) [Compound I-1559], at most 100 nM.
As for `O=C1N[C@@H](c2cc(F)ccc2Cl)c2c(NC(=O)N3C[C@@](O)(C(F)(F)F)c4cc(F)ccc43)cc(-n3nccn3)cc21` (single isomer, unassigned) [Compound I-2571], the figure is 1000 to 10000 nM; as for `O=C(Nc1cc(-c2ccc3ocnc3c2)cc2c1C(c1cc(F)ccc1Cl)NC2=O)c1cc(F)cc(C(F)(F)F)c1` (centres unmarked) [Compound I-1415], at most 100 nM.
Regarding `O=C(Nc1cc(O[C@@H]2COC[C@H]2O)cc2c1C(c1cc(F)ccc1Cl)NC2=O)c1cc(F)cc(C(F)(F)F)c1` (mixture of isomers) [Compound I-1192], the half-inhibitory concentration (IC50) was at most 100 nM.
For `Cc1ccccc1C1NC(=O)c2cccc(NC(=O)C3CCc4ccccc43)c21` (centres unmarked) [Compound I-256] the value was 1000 to 10000 nM.
For `CNS(=O)(=O)c1cc(-c2ccc3ncnn3c2)cc2c1C(c1cc(F)ccc1Cl)NC2=O` (centres unmarked) [Compound I-1977] the value was 10000 to 100000 nM.
`CC(=O)NCc1cc(NC(=O)c2cc(F)cc(C(F)(F)F)c2)c2c(c1)C(=O)NC2c1cc(F)ccc1Cl` (centres unmarked) [Compound I-207] came in with an IC50 of 100 to 500 nM.
For `O=C1N[C@@H](c2cc(F)ccc2Cl)c2c(Nc3cn[nH]c3)cc(Br)cc21` [Compound I-2184] the value was 10000 to 100000 nM.
Regarding `O=C(Nc1cc(-c2cnc[nH]2)cc2c1C(c1cc(F)ccc1Cl)NC2=O)c1cc(F)cc(C(F)(F)F)c1` (centres unmarked) [Compound I-838], the IC50 is at most 100 nM.
As for `CP(C)(=O)Cc1cc(NC(=O)c2cc(F)cc(C(F)(F)F)c2)c2c(c1)C(=O)NC2c1cc(F)ccc1Cl` (centres unmarked) [Compound I-775], the figure is at most 100 nM; as for `Cc1cc2ncnn2cc1-c1cc(NC(=O)c2cc(F)cc(C(F)(F)F)c2)c2c(c1)C(=O)NC2c1cc(F)ccc1Cl` (centres unmarked) [Compound I-1827], at most 100 nM.
On to `O=C1NC(c2cc(F)ccc2Cl)c2c(NC3CNCc4ccccc43)cc(-c3ccc4ncnn4c3)cc21` (centres unmarked) [Compound I-1959], for which the IC50 is 1000 to 10000 nM.
For `O=C1NC(c2cc(F)ccc2Cl)c2c(NC(=O)N3CC4CC4(F)C3)cc(Br)cc21` (centres unmarked) [Compound I-1954] the value was 10000 to 100000 nM; for `Cn1c(Cl)cc(C(=O)Nc2cc(Br)cc3c2C(c2cc(F)ccc2Cl)NC3=O)cc1=O` (centres unmarked) [Compound I-1209], 10000 to 100000 nM; for `O=C1NC(c2cc(F)ccc2Cl)c2c(NC(=O)C(Cl)c3ccccc3)cc(-c3ccc4ncnn4c3)cc21` (centres unmarked) [Compound I-1630], 1000 to 10000 nM.
For `O=C(Nc1cc(C2(O)CC2)cc2c1C(c1cc(F)ccc1Cl)NC2=O)c1cc(F)cc(C(F)(F)F)c1` (centres unmarked) [Compound I-374, N-[3-(2-chloro-5-fluorophenyl)-6-(1-hydroxycyclopropyl)-1-oxo-2,3-dihydro-1H-isoindol-4-yl]-3-fluoro-5-(trifluoromethyl)benzamide] the value was at most 100 nM; for `CC(C#N)c1cc(NC(=O)c2cc(F)cc(C(F)(F)F)c2)c2c(c1)C(=O)N[C@@H]2c1cc(F)ccc1Cl` (some centres unmarked) [Compound I-2289], 1000 to 10000 nM.
As for `O=C1NC(c2cc(F)ccc2Cl)c2c(NC(=O)C3(c4ccc(Cl)c(Cl)c4)CCCC3)cc(Br)cc21` (centres unmarked) [Compound I-1636], the figure is 10000 to 100000 nM; as for `O=C(Nc1cc(C#CC2COC2)cc2c1C(c1cc(F)ccc1Cl)NC2=O)c1cc(F)cc(C(F)(F)F)c1` (centres unmarked) [Compound I-1223], at most 100 nM; as for `O=C(Nc1cc(-c2cnn(-c3ncccn3)c2)cc2c1C(c1cc(F)ccc1Cl)NC2=O)c1cc(F)cc(C(F)(F)F)c1` (single isomer, unassigned) [Compound I-1555], at most 100 nM.
In turn, `O=C(Nc1cc(N2CC(F)(F)C2)nc2c1[C@@H](c1cc(F)ccc1Cl)NC2=O)c1cc(F)cc(C(F)(F)F)c1` [Compound I-367] came in with an IC50 of 1000 to 10000 nM.
For `O=C1NC(c2cc(F)ccc2Cl)c2c(NC(=O)C3CC(O)C3)cc(-c3ccc4ncnn4c3)cc21` (centres unmarked) [Compound I-1664] the value was 10000 to 100000 nM; for `O=C(Nc1cc(-c2cn3ncnc3cn2)cc2c1C(c1cc(F)ccc1Cl)NC2=O)c1cc(F)cc(C(F)(F)F)c1` (centres unmarked) [Compound I-1335], at most 100 nM.
Take `O=C(Nc1cc(-c2cn3cc(C(F)F)nc3cn2)cc2c1C(c1cc(F)ccc1Cl)NC2=O)c1cc(F)cc(C(F)(F)F)c1` (centres unmarked) [Compound I-2065]: the concentration for half-maximal inhibition (IC50) is at most 100 nM.
As for `O=C(Nc1cc(Br)cc2c1C(c1cc(F)ccc1Cl)NC2=O)c1ccc(F)c(OC(F)F)c1` (centres unmarked) [Compound I-558], the figure is 1000 to 10000 nM; as for `[2H]C1([2H])N(C(=O)Nc2cccc3c2[C@@H](c2cc(F)ccc2Cl)NC3=O)c2ccc(F)cc2[C@]1(O)C(F)(F)F` (single isomer, unassigned) [Compound I-2592], 1000 to 10000 nM.
Compound `O=C(Nc1cc(Br)cc2c1C(c1cc(F)ccc1Cl)NC2=O)c1cc(F)ccc1C(F)F` (centres unmarked) [Compound I-837] yielded an IC50 of 1000 to 10000 nM.
`O=C(Nc1cc(NCC(F)F)nc2c1C(c1cc(F)ccc1Cl)NC2=O)c1cc(F)cc(C(F)(F)F)c1` (centres unmarked) [Compound I-338] had an IC50 of at most 100 nM.
As for `O=C(Nc1cc(N2CCOc3ccccc32)cc2c1C(c1cc(F)ccc1Cl)NC2=O)c1cc(F)cc(C(F)(F)F)c1` (centres unmarked) [Compound I-1189], the figure is at most 100 nM; as for `O=C(Nc1cc(O[C@H]2CC[C@@H]2O)cc2c1C(c1cc(F)ccc1Cl)NC2=O)c1cc(F)cc(C(F)(F)F)c1` (mixture of isomers) [Compound I-1289], 100 to 500 nM.
As for `O=C1NC(c2cc(F)ccc2Cl)c2c(NC(=O)N3CCCC3C3CC3)cccc21` (centres unmarked) [Compound I-2408], the figure is 10000 to 100000 nM; as for `O=C(CC1CCC(O)CC1)Nc1cc(-c2ccc3ncnn3c2)cc2c1C(c1cc(F)ccc1Cl)NC2=O` (centres unmarked) [Compound I-1913], 10000 to 100000 nM.
For `O=C(Nc1cc(-c2ccn3nc(Cl)nc3c2)cc2c1[C@@H](c1cc(F)ccc1Cl)NC2=O)c1cc(F)cc(C(F)(F)F)c1` [Compound I-1606] the value was 100 to 500 nM; for `NCCc1cc(NC(=O)N2C[C@@](O)(C(F)(F)F)c3cc(F)ccc32)c2c(c1)C(=O)N[C@@H]2c1cc(F)ccc1Cl` (single isomer, unassigned) [Compound I-2583], 1000 to 10000 nM; for `O=C1N[C@H](c2cc(F)ccc2Cl)c2c(NC(=O)[C@@H]3CC[C@H](C(F)(F)F)C3)cccc21` [Compound I-2084], 10000 to 100000 nM.
Regarding `CC(C)(COS(C)(=O)=O)c1cc(NC(=O)c2cc(F)cc(C(F)(F)F)c2)c2c(c1)C(=O)NC2c1cc(F)ccc1Cl` (centres unmarked) [Compound I-656], the IC50 was at most 100 nM.
`NCc1cc(NC(=O)N2C[C@@](O)(C(F)F)c3cc(F)ccc32)c2c(c1)C(=O)N[C@H]2c1cc(F)ccc1Cl` (single isomer, unassigned) [Compound I-2696] had an IC50 of 1000 to 10000 nM.
Compound `O=C(Nc1cc(-c2ccc3nccn3c2)cc2c1C(c1cc(F)ccc1Cl)NC2=O)c1cc(F)cc(C(F)(F)F)c1` (centres unmarked) [Compound I-736] showed an IC50 of at most 100 nM.
For the compound `O=C(Nc1cc(/N=C2/N[C@H](C(F)(F)F)CO2)cc2c1[C@@H](c1cc(F)ccc1Cl)NC2=O)c1cc(F)cc(C(F)(F)F)c1` (single isomer, unassigned) [Compound I-2389], the concentration for half-maximal inhibition (IC50) lay in the range of 1000 to 10000 nM.
As for `O=C(Nc1cc(NC(=O)C2COC2)cc2c1C(c1cc(F)ccc1Cl)NC2=O)c1cc(F)cc(C(F)(F)F)c1` (centres unmarked) [Compound I-344], the figure is at most 100 nM.
For `O=C(Nc1cc(CC2(O)CCC2)cc2c1C(c1cc(F)ccc1Cl)NC2=O)c1cc(F)cc(C(F)(F)F)c1` (centres unmarked) [Compound I-706] the value was at most 100 nM.
